Experimental data taken from patent US7118895B2, “Process for producing aglycon by using diglycosidase and flavor-improved food containing the aglycon and converting agent to be used in the process” (Amano Enzyme Inc., priority 2000, dated 2006).

Tested on: Crude diglycosidase
Experiment: Examination of temperature in the conversion into isoflavone aglycons by diglycosidase using soybean materials
Type: biochemical, Penicillium multicolor IAM7153
Design: Decomposition efficiency of glycitin family in roasted soy flour / Decomposition efficiency of daidzin family in roasted soy flour / Decomposition efficiency of genistin family in soymilk / Decomposition efficiency of daidzin family in soymilk / Decomposition efficiency of glycitin family in defatted soybean / Decomposition efficiency of daidzin family in defatted soybean: concentration or dose not given beside the values
Method in brief: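 Soybean materials (50 mg) suspended in 20 mM acetate buffer pH 4.0 reacted with crude diglycosidase diluted to 1.88 AU/mL at 80, 65, 55, 45, 37 or 30° C. Reactions stopped with ethanol at 0, 1, 3 and 6 h; isoflavone glycosides and aglycons in supernatant detected by HPLC.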

[1] = 30 °C, heat treatment of enzyme: no, 0 h
[2] = 30 °C, heat treatment of enzyme: no, 1 h
[3] = 30 °C, heat treatment of enzyme: no, 3 h
[4] = 30 °C, heat treatment of enzyme: no, 6 h
[5] = 30 °C, heat treatment of enzyme: yes, 6 h
[6] = 45 °C, heat treatment of enzyme: no, 0 h
[7] = 45 °C, heat treatment of enzyme: no, 1 h
[8] = 45 °C, heat treatment of enzyme: no, 3 h
[9] = 45 °C, heat treatment of enzyme: no, 6 h
[10] = 45 °C, heat treatment of enzyme: yes, 6 h
[11] = 55 °C, heat treatment of enzyme: no, 0 h
[12] = 55 °C, heat treatment of enzyme: no, 1 h
[13] = 55 °C, heat treatment of enzyme: no, 3 h
[14] = 55 °C, heat treatment of enzyme: no, 6 h
[15] = 55 °C, heat treatment of enzyme: yes, 6 h
[16] = 65 °C, heat treatment of enzyme: no, 0 h
[17] = 65 °C, heat treatment of enzyme: no, 1 h
[18] = 65 °C, heat treatment of enzyme: no, 3 h
[19] = 65 °C, heat treatment of enzyme: no, 6 h
[20] = 65 °C, heat treatment of enzyme: yes, 6 h
[21] = 80 °C, heat treatment of enzyme: no, 0 h
[22] = 80 °C, heat treatment of enzyme: no, 1 h
[23] = 80 °C, heat treatment of enzyme: no, 3 h
[24] = 80 °C, heat treatment of enzyme: no, 6 h
[25] = 80 °C, heat treatment of enzyme: yes, 6 h

COc1cc2c(=O)c(-c3ccc(O)cc3)coc2cc1O[C@@H]1O[C@H](CO)[C@@H](O)[C@H](O)[C@H]1O [glycitin]
Decomposition efficiency of glycitin family in defatted soybean (30° C., heat treatment of enzyme no, reaction time 0 h): not detected
Decomposition efficiency of glycitin family in defatted soybean (30° C., heat treatment of enzyme no, reaction time 1 h): not detected
Decomposition efficiency of glycitin family in defatted soybean (30° C., heat treatment of enzyme no, reaction time 3 h): not detected
Decomposition efficiency of glycitin family in defatted soybean (30° C., heat treatment of enzyme no, reaction time 6 h): not detected
Decomposition efficiency of glycitin family in defatted soybean (30° C., heat treatment of enzyme yes, reaction time 6 h): not detected
Decomposition efficiency of glycitin family in concentrated soybean protein [1]: 52.2%
Decomposition efficiency of glycitin family in roasted soy flour [1]: 50.9%
Decomposition efficiency of glycitin family in soymilk [1]: 43.9%
Decomposition efficiency of glycitin family in concentrated soybean protein [2]: 47.1%
Decomposition efficiency of glycitin family in roasted soy flour [2]: 34.8%
Decomposition efficiency of glycitin family in soymilk [2]: not detected
Decomposition efficiency of glycitin family in concentrated soybean protein [3]: 39.1%
Decomposition efficiency of glycitin family in roasted soy flour [3]: not detected
Decomposition efficiency of glycitin family in soymilk [3]: not detected
Decomposition efficiency of glycitin family in concentrated soybean protein [4]: 28.4%
Decomposition efficiency of glycitin family in roasted soy flour [4]: not detected
Decomposition efficiency of glycitin family in soymilk [4]: not detected
Decomposition efficiency of glycitin family in concentrated soybean protein [5]: 52.8%
Decomposition efficiency of glycitin family in roasted soy flour [5]: 51.4%
Decomposition efficiency of glycitin family in soymilk [5]: 44.5%
Decomposition efficiency of glycitin family in defatted soybean (45° C., heat treatment of enzyme no, reaction time 0 h): not detected
Decomposition efficiency of glycitin family in defatted soybean (45° C., heat treatment of enzyme no, reaction time 1 h): not detected
Decomposition efficiency of glycitin family in defatted soybean (45° C., heat treatment of enzyme no, reaction time 3 h): not detected
Decomposition efficiency of glycitin family in defatted soybean (45° C., heat treatment of enzyme no, reaction time 6 h): not detected
Decomposition efficiency of glycitin family in defatted soybean (45° C., heat treatment of enzyme yes, reaction time 6 h): not detected
Decomposition efficiency of glycitin family in concentrated soybean protein [6]: 52.3%
Decomposition efficiency of glycitin family in roasted soy flour [6]: 51.3%
Decomposition efficiency of glycitin family in soymilk [6]: 42.6%
Decomposition efficiency of glycitin family in concentrated soybean protein [7]: 30.2%
Decomposition efficiency of glycitin family in roasted soy flour [7]: 12.4%
Decomposition efficiency of glycitin family in soymilk [7]: not detected
Decomposition efficiency of glycitin family in concentrated soybean protein [8]: 18.8%
Decomposition efficiency of glycitin family in roasted soy flour [8]: 12.4%
Decomposition efficiency of glycitin family in soymilk [8]: not detected
Decomposition efficiency of glycitin family in concentrated soybean protein [9]: 7.5%
Decomposition efficiency of glycitin family in roasted soy flour [9]: 5.9%
Decomposition efficiency of glycitin family in soymilk [9]: not detected
Decomposition efficiency of glycitin family in concentrated soybean protein [10]: 53.2%
Decomposition efficiency of glycitin family in roasted soy flour [10]: 49.8%
Decomposition efficiency of glycitin family in soymilk [10]: 45.4%
Decomposition efficiency of glycitin family in defatted soybean (55° C., heat treatment of enzyme no, reaction time 0 h): not detected
Decomposition efficiency of glycitin family in defatted soybean (55° C., heat treatment of enzyme no, reaction time 1 h): not detected
Decomposition efficiency of glycitin family in defatted soybean (55° C., heat treatment of enzyme no, reaction time 3 h): not detected
Decomposition efficiency of glycitin family in defatted soybean (55° C., heat treatment of enzyme no, reaction time 6 h): not detected
Decomposition efficiency of glycitin family in defatted soybean (55° C., heat treatment of enzyme yes, reaction time 6 h): not detected
Decomposition efficiency of glycitin family in concentrated soybean protein [11]: 52.3%
Decomposition efficiency of glycitin family in roasted soy flour [11]: 50.5%
Decomposition efficiency of glycitin family in soymilk [11]: 47.8%
Decomposition efficiency of glycitin family in concentrated soybean protein [12]: 14.2%
Decomposition efficiency of glycitin family in roasted soy flour [12]: not detected
Decomposition efficiency of glycitin family in soymilk [12]: not detected
Decomposition efficiency of glycitin family in concentrated soybean protein [13]: not detected
Decomposition efficiency of glycitin family in roasted soy flour [13]: not detected
Decomposition efficiency of glycitin family in soymilk [13]: not detected
Decomposition efficiency of glycitin family in concentrated soybean protein [14]: not detected
Decomposition efficiency of glycitin family in roasted soy flour [14]: not detected
Decomposition efficiency of glycitin family in soymilk [14]: not detected
Decomposition efficiency of glycitin family in concentrated soybean protein [15]: 52.9%
Decomposition efficiency of glycitin family in roasted soy flour [15]: 51.7%
Decomposition efficiency of glycitin family in soymilk [15]: 53.5%
Decomposition efficiency of glycitin family in defatted soybean (65° C., heat treatment of enzyme no, reaction time 0 h): not detected
Decomposition efficiency of glycitin family in defatted soybean (65° C., heat treatment of enzyme no, reaction time 1 h): not detected
Decomposition efficiency of glycitin family in defatted soybean (65° C., heat treatment of enzyme no, reaction time 3 h): not detected
Decomposition efficiency of glycitin family in defatted soybean (65° C., heat treatment of enzyme no, reaction time 6 h): not detected
Decomposition efficiency of glycitin family in defatted soybean (65° C., heat treatment of enzyme yes, reaction time 6 h): not detected
Decomposition efficiency of glycitin family in concentrated soybean protein [16]: 52.2%
Decomposition efficiency of glycitin family in roasted soy flour [16]: 50.9%
Decomposition efficiency of glycitin family in soymilk [16]: 43.9%
Decomposition efficiency of glycitin family in concentrated soybean protein [17]: 5.2%
Decomposition efficiency of glycitin family in roasted soy flour [17]: not detected
Decomposition efficiency of glycitin family in soymilk [17]: not detected
Decomposition efficiency of glycitin family in concentrated soybean protein [18]: not detected
Decomposition efficiency of glycitin family in roasted soy flour [18]: not detected
Decomposition efficiency of glycitin family in soymilk [18]: not detected
Decomposition efficiency of glycitin family in concentrated soybean protein [19]: not detected
Decomposition efficiency of glycitin family in roasted soy flour [19]: not detected
Decomposition efficiency of glycitin family in soymilk [19]: not detected
Decomposition efficiency of glycitin family in concentrated soybean protein [20]: 52.5%
Decomposition efficiency of glycitin family in roasted soy flour [20]: 50.3%
Decomposition efficiency of glycitin family in soymilk [20]: 56.8%
Decomposition efficiency of glycitin family in defatted soybean (80° C., heat treatment of enzyme no, reaction time 0 h): not detected
Decomposition efficiency of glycitin family in defatted soybean (80° C., heat treatment of enzyme no, reaction time 1 h): not detected
Decomposition efficiency of glycitin family in defatted soybean (80° C., heat treatment of enzyme no, reaction time 3 h): not detected
Decomposition efficiency of glycitin family in defatted soybean (80° C., heat treatment of enzyme no, reaction time 6 h): not detected
Decomposition efficiency of glycitin family in defatted soybean (80° C., heat treatment of enzyme yes, reaction time 6 h): not detected
Decomposition efficiency of glycitin family in concentrated soybean protein [21]: 52.3%
Decomposition efficiency of glycitin family in roasted soy flour [21]: 51.3%
Decomposition efficiency of glycitin family in soymilk [21]: 42.6%
Decomposition efficiency of glycitin family in concentrated soybean protein [22]: 39.7%
Decomposition efficiency of glycitin family in roasted soy flour [22]: 19.2%
Decomposition efficiency of glycitin family in soymilk [22]: 10.7%
Decomposition efficiency of glycitin family in concentrated soybean protein [23]: 40.5%
Decomposition efficiency of glycitin family in roasted soy flour [23]: 20.5%
Decomposition efficiency of glycitin family in soymilk [23]: 22.5%
Decomposition efficiency of glycitin family in concentrated soybean protein [24]: 41.7%
Decomposition efficiency of glycitin family in roasted soy flour [24]: 33.6%
Decomposition efficiency of glycitin family in soymilk [24]: 44.2%
Decomposition efficiency of glycitin family in concentrated soybean protein [25]: 53.6%
Decomposition efficiency of glycitin family in roasted soy flour [25]: 50.6%
Decomposition efficiency of glycitin family in soymilk [25]: 71.4%
